Molecular target: T1, Human PPARα (Homo sapiens, UniProt Q07869)
T1 construct: host or cells: proprietary non-human mammalian cells
T1 sequence (Q07869 1-468): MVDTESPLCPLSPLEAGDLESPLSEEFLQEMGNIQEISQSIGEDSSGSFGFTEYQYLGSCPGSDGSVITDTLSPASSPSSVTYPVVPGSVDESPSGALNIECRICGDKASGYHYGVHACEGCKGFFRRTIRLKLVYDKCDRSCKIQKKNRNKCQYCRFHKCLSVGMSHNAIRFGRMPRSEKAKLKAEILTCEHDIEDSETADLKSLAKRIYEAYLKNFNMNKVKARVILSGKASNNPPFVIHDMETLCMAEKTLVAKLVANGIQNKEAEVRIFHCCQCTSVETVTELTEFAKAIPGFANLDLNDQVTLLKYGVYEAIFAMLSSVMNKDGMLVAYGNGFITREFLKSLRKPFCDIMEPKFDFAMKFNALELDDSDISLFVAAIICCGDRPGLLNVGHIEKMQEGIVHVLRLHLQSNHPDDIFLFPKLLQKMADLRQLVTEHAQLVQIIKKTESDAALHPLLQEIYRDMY
Test: Human PPARα Reporter Assay (luciferase)
Assay type: cell-based
Details: human PPARα reporter cells, overnight incubation, antagonism; read-out: Luciferase IC50
Experimental: Human PPARα Reporter Assay
The screening of test compounds for agonist or antagonist activities against human PPARα receptors was performed using a commercial kit, Human PPARα Reporter Assay System (Indigo Biosciences, Cat. #IB00111).
This nuclear receptor assay system utilizes proprietary non-human mammalian cells engineered to provide constitutive, high-level expression of Human PPARα. Because these cells incorporate a PPARα-responsive luciferase reporter gene, quantifying expressed luciferase activity provides a sensitive surrogate measure of PPARα activity in the treated cells. The primary application of this reporter assay system is in the screening of test samples to quantify any functional activity, either agonist or antagonist, that they may exert against human PPARα.
Briefly, reporter cells are dispensed into wells of the assay plate and then immediately dosed with test compounds. Following an overnight incubation, the treatment media is discarded and Luciferase Detection Reagent (LDR) is added. The intensity of light emission from the ensuing luciferase reaction provides a sensitive measure that is directly proportional to the relative level of PPARα activation in the reporter cells.

Structure (SMILES)	IC50 [nM]
CCn1c(CCCc2ccc(-c3cccc(CC(=O)NS(=O)(=O)c4ccccc4)c3)cc2)nn(Cc2ccc(C(C)(C)C)cc2)c1=O [Example 8, 2-(4′-(3-(1-(4-(tert-Butyl)benzyl)-4-ethyl-5-oxo-4,5-dihydro-1H-1,2,4-triazol-3-yl)propyl)-[1,1′-biphenyl]-3-yl)-N-(phenylsulfonyl) acetamide]	304
CCC(C(=O)O)c1cccc(-c2ccc(CCCc3nn(Cc4ccc(C(C)(C)C)cc4)c(=O)n3CC)cc2)c1 (stereo not shown) [Example 46, 2-(3-{4-[3-(1-{[4-(tert-Butyl)phenyl]methyl}-4-ethyl-5-oxo-1,2,4-triazolin-3-yl)propyl]phenyl}phenyl)butanoic acid]	699
CCn1c(CCCc2ccc(-c3ccc(OC)c(CC(=O)O)c3)c(O)c2)nn(Cc2ccc(C(C)(C)C)cc2)c1=O [Example 145, 2-(4′-(3-(1-(4-(tert-Butyl)benzyl)-4-ethyl-5-oxo-4,5-dihydro-1H-1,2,4-triazol-3-yl)propyl)-2′-hydroxy-4-methoxy-[1,1′-biphenyl]-3-yl) acetic acid]	692
CC(C)(C)c1ccc(Cn2nc(CCCc3ccc(-c4cccc(CC(=O)O)c4)cc3)n(CC3CC3)c2=O)cc1 [Example 53, 2-(4′-(3-(1-(4-(tert-Butyl)benzyl)-4-(cyclopropylmethyl)-5-oxo-4,5-dihydro-1H-1,2,4-triazol-3-yl)propyl)-[1,1′-biphenyl]-3-yl)acetic acid]	363
CCn1c(CCCc2ccc(-c3cccc(NS(=O)(=O)C4CC4)n3)cc2)nn(Cc2ccc(C(C)(C)C)cc2)c1=O [Example 42, 1-{[4-(tert-Butyl)phenyl]methyl}-3-[3-(4-{6-[(cyclopropylsulfonyl)amino](2-pyridyl)}phenyl)propyl]-4-ethyl-1,2,4-triazolin-5-one]	488
CCn1c(CCCc2ccc(-c3ccc(OC)c(NS(=O)(=O)c4ccc(OC)cc4)n3)cc2)nn(Cc2ccc(C(C)(C)C)cc2)c1=O [Example 93, 1-{[4-(tert-Butyl)phenyl]methyl}-4-ethyl-3-{3-[4-(5-methoxy-6-{[(4-methoxyphenyl)sulfonyl]amino}(2-pyridyl))phenyl]propyl}-1,2,4-triazolin-5-one]	3
CCn1c(CCCc2ccc(-c3cccc(CC(=O)O)c3)cc2)nn(Cc2ccc(Br)cc2)c1=O [Example 37, 2-(4′-(3-(1-(4-Bromobenzyl)-4-ethyl-5-oxo-4,5-dihydro-1H-1,2,4-triazol-3-yl)propyl)-[1,1′-biphenyl]-3-yl)acetic acid]	1960
CCn1c(CCCc2ccc(-c3cccc(C(C)(C)C(N)=O)c3)cc2)nn(Cc2ccc(C(C)(C)C)cc2)c1=O [Example 15, 2-(4′-(3-(1-(4-(tert-Butyl)benzyl)-4-ethyl-5-oxo-4,5-dihydro-1H-1,2,4-triazol-3-yl)propyl)-[1,1′-biphenyl]-3-yl)-2-methylpropanamide]	519
CCn1c(CCCc2ccc(-c3ccc(N)cn3)cc2)nn(Cc2ccc(C(C)(C)C)cc2)c1=O [Example 5, 3-(3-(4-(5-Aminopyridin-2-yl)phenyl)propyl)-1-(4-(tert-butyl)benzyl)-4-ethyl-1H-1,2,4-triazol-5(4H)-one]	43
CCn1c(CCCc2ccc(-c3cc(NS(=O)(=O)c4ccccc4)ccn3)cc2)nn(Cc2ccc(C(C)(C)C)cc2)c1=O [Example 16, N-(2-(4-(3-(1-(4-(tert-Butyl)benzyl)-4-ethyl-5-oxo-4,5-dihydro-1H-1,2,4-triazol-3-yl)propyl)phenyl)pyridin-4-yl)benzenesulfonamide]	90
CCn1c(CCCc2ccc(-c3cccc(C(O)C(=O)NC4CC4)c3)cc2)nn(Cc2ccc(C(C)(C)C)cc2)c1=O (stereo not shown) [Example 56, 2-(4′-(3-(1-(4-(tert-Butyl)benzyl)-4-ethyl-5-oxo-4,5-dihydro-1H-1,2,4-triazol-3-yl)propyl)-[1,1′-biphenyl]-3-yl)-N-cyclopropyl-2-hydroxyacetamide]	330
CCn1c(CCCc2ccc(-c3ccc4[nH]cc(C(=O)O)c4c3)cc2)nn(Cc2ccc(C(C)(C)C)cc2)c1=O [Example 70, 5-(4-(3-(1-(4-(tert-Butyl)benzyl)-4-ethyl-5-oxo-4,5-dihydro-1H-1,2,4-triazol-3-yl)propyl)phenyl)-1H-indole-3-carboxylic acid]	270
CCn1c(CCCc2ccc(-c3ccc(OC)c(CC(=O)O)c3)c(C(F)(F)F)c2)nn(Cc2ccc(C(C)(C)C)cc2)c1=O [Example 150, 2-(4′-(3-(1-(4-(tert-Butyl)benzyl)-4-ethyl-5-oxo-4,5-dihydro-1H-1,2,4-triazol-3-yl)propyl)-4-methoxy-2′-(trifluoromethyl)-[1,1′-biphenyl]-3-yl) acetic acid]	126
CCOc1ccc(-c2ccc(CCCc3nn(Cc4ccc(C(C)(C)C)cc4)c(=O)n3CC)cc2)nc1N [Example 60, 3-{3-[4-(6-Amino-5-ethoxy(2-pyridyl))phenyl]propyl}-1-{[4-(tert-butyl)phenyl]methyl}-4-ethyl-1,2,4-triazolin-5-one]	63
CCn1c(CCCc2ccc(-c3cc(C)c(NS(=O)(=O)Cc4ccccc4)cn3)cc2)nn(Cc2ccc(C(C)(C)C)cc2)c1=O [Example 127, 1-{[4-(tert-Butyl)phenyl]methyl}-4-ethyl-3-{3-[4-(4-methyl-5-{[benzylsulfonyl]amino}(2-pyridyl))phenyl]propyl}-1,2,4-triazolin-5-one]	445
CCn1c(CCCc2ccc(-c3ccc(OCC4CC4)c(CC(=O)O)c3)cc2)nn(Cc2ccc(C(C)(C)C)cc2)c1=O [Example 49, 2-(4′-(3-(1-(4-(tert-Butyl)benzyl)-4-ethyl-5-oxo-4,5-dihydro-1H-1,2,4-triazol-3-yl)propyl)-4-(cyclopropylmethoxy)-[1,1′-biphenyl]-3-yl)acetic acid]	69

Now from value to compound:

IC50 [nM]	Structure (SMILES)
607	CCn1c(CCCc2ccc(-c3ccc(C4(O)CCOCC4)cc3)cc2)nn(Cc2ccc(C(C)(C)C)cc2)c1=O [Example 187, 1-(4-(tert-Butyl)benzyl)-4-ethyl-3-(3-(4′-(4-hydroxytetrahydro-2H-pyran-4-yl)-[1,1′-biphenyl]-4-yl)propyl)-1H-1,2,4-triazol-5(4H)-one]
202	CCn1c(CCCc2ccc(-c3ccc(C)c(C(=O)O)n3)cc2)nn(Cc2ccc(C(C)(C)C)cc2)c1=O [Example 165, 6-(4-(3-(1-(4-(tert-Butyl)benzyl)-4-ethyl-5-oxo-4,5-dihydro-1H-1,2,4-triazol-3-yl)propyl)phenyl)-3-methylpicolinic acid]
12	CCn1c(CCCc2ccc(-c3ccc(OC)c(NS(=O)(=O)C4CCCCC4)n3)cc2)nn(Cc2ccc(C(C)(C)C)cc2)c1=O [Example 192, 1-{[4-(tert-Butyl)phenyl]methyl}-4-ethyl-3-[3-(4-{6-[(cyclohexylsulfonyl)amino]-5-methoxy(2-pyridyl)}phenyl)propyl]-1,2,4-triazolin-5-one]
429	CCn1c(CCCc2ccc(-c3ccc(NC(=O)NS(=O)(=O)c4ccccc4)cn3)cc2)nn(Cc2ccc(C(C)(C)C)cc2)c1=O [Example 160, N-((6-(4-(3-(1-(4-(tert-Butyl)benzyl)-4-ethyl-5-oxo-4,5-dihydro-1H-1,2,4-triazol-3-yl)propyl)phenyl)pyridin-3-yl)carbamoyl)benzenesulfonamide]
13	CCn1c(CCCc2ccc(-c3ccc(OC(C)C)c(CC(=O)O)c3)cc2)nn(Cc2ccc(C(C)(C)C)cc2)c1=O [Example 200, 2-(4′-(3-(1-(4-(tert-Butyl)benzyl)-4-ethyl-5-oxo-4,5-dihydro-1H-1,2,4-triazol-3-yl)propyl)-4-isopropoxy-[1,1′-biphenyl]-3-yl)acetic acid]
440	CCn1c(CCCc2ccc(-c3ccc(OC)c(CCNS(C)(=O)=O)c3)cc2)nn(Cc2ccc(C(C)(C)C)cc2)c1=O [Example 183, 1-{[4-(tert-Butyl)phenyl]methyl}-4-ethyl-3-{3-[4-(4-methoxy-3-{2-[(methylsulfonyl)amino]ethyl}phenyl)phenyl]propyl}-1,2,4-triazolin-5-one]
21	CCn1c(CCCc2ccc(-c3cc(OC)cc(C(=O)O)c3)cc2)nn(Cc2ccc(C(C)(C)C)cc2)c1=O [Example 193, 3-{4-[3-(1-{[4-(tert-Butyl)phenyl]methyl}-4-ethyl-5-oxo(1,2,4-triazolin-3-yl))propyl]phenyl}-5-methoxybenzoic acid]
410	CCn1c(CCCc2ccc(-c3ccc(OC)c(CC(=O)O)c3)c(OC)c2)nn(Cc2ccc(C(C)(C)C)cc2)c1=O [Example 159, 2-(4′-(3-(1-(4-(tert-Butyl)benzyl)-4-ethyl-5-oxo-4,5-dihydro-1H-1,2,4-triazol-3-yl)propyl)-2′,4-dimethoxy-[1,1′-biphenyl]-3-yl)acetic acid]
126	CCn1c(CCCc2ccc(-c3cnc(C4(O)COC4)nc3)cc2)nn(Cc2ccc(C(C)(C)C)cc2)c1=O [Example 173, 1-(4-(tert-Butyl)benzyl)-4-ethyl-3-(3-(4-(2-(3-hydroxyoxetan-3-yl)pyrimidin-5-yl)phenyl)propyl)-1H-1,2,4-triazol-5(4H)-one]

Source: patent US9505728B2, “Triazolone compounds and uses thereof” (INCEPTION 2, INC., priority 2012, dated 2016)
